{"source": "patent US20260306640A1", "about": "“TECHNOLOGIES TARGETING CELL STATES” (Auron Therapeutics, Inc., priority 2023, published 2026)", "key": {"CD86 in MOLM-13 cells": {"tested_on": "CD86 in MOLM-13 cells", "assay": "Flow cytometry for CD86 (monocytic differentiation) in MOLM-13", "assay_type": "cell-based", "settings": "FIG. 2", "description": "In some assessments, flow cytometry was utilized to assess levels of cells expressing certain polypeptides. For example, for flow cytometry for CD86 in MOLM-13, MOLM13 cells were stained with Live/Dead solution (Fixable Live/Dead NIR 1:100 in PBS) at RT, in the dark, for 20 min and then washed once with cell staining solution. The cells were then blocked with Human Fc Blocker solution at RT for 8 mins. Then they were labeled with CD86-APC R700 (565149, BD) (2.5 uL/test) on ice for 30 min in the dark. Following incubation, cells were washed once with cell staining solution. Flow cytometric acquisition was done on BD Celesta flow cytometer (BD Biosciences) and analyses were performed using Flow-Jo software."}, "[1]": {"tested_on": "neuroendocrine prostate cancer cells, e.g., LASCPC-01 cells", "assay": "Differentiation GSEA signatures from RNA-Seq, LASCPC-01", "assay_type": "cell-based", "settings": "FIG. 3", "description": "In some embodiments, GSEA signatures are utilized for assessing cell states, differentiation, etc. In some assessments, differentiation GSEA signatures, e.g., from RNA-Seq was performed. A useful protocol is described herein as an example. In some assessments, LASCPC-01 cells, NEPC organoid cell pellets, or NCI-H1048 tumor pieces were flash frozen upon harvest and stored at −80° C. RNA was isolated, mRNA library was prepared (poly A enrichment) and sequencing was run. Reads were aligned to reference v38 using Kallis to generate gene count matrices for each sample. The gene count matrix was the input to the ML pipelines that generate normal atlas scores and cell state classification. It was also input to differential expression analysis using Edger in R. The output of differential expression was input to gene set enrichment analysis (GSEA) to define gene sets that were most shifted by treatment. For defining specific epithelial differentiation endpoints to generate the solid tumor differentiation box plots, cell state gene sets resulting from GSEA are consolidated by cell state to define a consensus set of genes that define epithelial differentiation. Other suitable technologies may also utilized in accordance with the present disclosure."}, "MOLM-13 cells": {"tested_on": "MOLM-13 cells", "assay": "Cell growth inhibition (cell count, 8 days), MOLM-13 cells", "assay_type": "cell-based", "settings": "Homo sapiens, 192 h, cell count after 8 days relative to DMSO control, FIG. 2 (B)", "description": "FIG. 2. Provided compounds can provide various activities. (A): Provided technologies can reduce KAT2A and KAT2B levels and histone acetylation levels. […] Cell count data after 8 days of treatment with compound 22 relative to DMSO control are presented as examples to confirm inhibition. […] (C): Provided technologies can modulate cell states and induce differentiation. […] EC50=0.3 nM."}, "NCI-H1048 tumors": {"tested_on": "NCI-H1048 tumors", "assay": "Tumor growth inhibition in nude Balb/c mice bearing NCI-H1048 tumors", "assay_type": "in vivo", "settings": "30 mg/kg, once per week i.p.; average tumor volumes from 6 mice; FIG. 1 (D)", "description": "(§1) FIG. 1. Provided compounds can provide various activities including inhibiting tumor growth in vivo. (A): Provided compounds can inhibit tumor growth in vivo. Nude Balb/c mice were inoculated with NCI-H1048 cells in Matrigel. Tumors were allowed to grow up to about 200 mm^3 and mice were then randomized into two groups. Mice were dosed intraperitoneally (i.p.) once per week with vehicle or 30 mg/kg compound 22. Tumor size was measured every three to four days and mice were sacrificed once vehicle tumors reached 2000 mm^3. Error bar is SEM. Dosing started at day 17 post tumor inoculation. (B): Provided technologies can reduce KAT2A and KAT2B levels and histone acetylation levels. […] Vehicle is DMSO. […] Cell count data relative to DMSO control after 8 days of treatment with compound 22 are presented as examples to confirm inhibition. GI50=6 nM. (D): Provided technologies can inhibit tumor growth in vivo. Nude balb/c mice inoculated with H1048 tumors were dosed intraperitoneally once per week (qw i.p.) with vehicle (HbCD) or compound 22. Average tumor volumes+/−SEM from 6 mice are represented. […] See also (A). […] Certain body weights relative to starting weight are presented as examples to confirm tolerability and safety. (F): Provided technologies can reduce KAT2A and KAT2B levels and histone acetylation levels in tumor in vivo. […]"}, "[2]": {"tested_on": "histone acetylation (e.g., AcH3K9)", "assay": "Histone H3K9 acetylation (AcH3K9), Western Blot, LASCPC-01 cells", "assay_type": "cell-based", "settings": "FIG. 3", "description": "(§2) In some embodiments, an assessment is performed using cells. In some embodiments, cells were treated with various compounds before assessing KAT2A and/or KAT2B levels, histone (e.g., H3K9) acetylation levels, cell states, growth, etc.\n(§3) Western Blot: In some assessments, MOLM13, NCI-H1048, LASCPC-01 and NEPC organoid cells were treated with compounds at certain concentrations for certain periods of time, and cell pellets were lysed by adding 1-part 4×laemmli Sample buffer (e.g., Bio-Rad Catalog #1610747) along with Mercaptoethanol (e.g., Bio-Rad Catalog #1610710) according to manufacturer's instructions, and 1-part RIPA buffer with 2×protease and phosphatase inhibitor. The samples were sonicated 30% amplitude, 35 seconds on and 35 seconds off for 1 cycle and boiled at 95° C. for 5 minutes. 30-35 μL of samples were loaded on a 4-15% Criterion™ TGX Stain-Free™ Protein Gel (Bio-rad, 5678084). In some assessments, NCI-H1048 flash frozen tumor pieces were resuspended in RIPA buffer and homogenized on TissueLyser II with steel beads at 30 Hz for 3 minutes. Samples were then centrifuged at […] at 4° C. for 15 minutes. BCA protein determination was performed and samples normalized for 1.95 ug/uL. 19.5 uL were loaded and run on similar gels as cell pellets. […]"}, "histone acetylation": {"tested_on": "histone acetylation", "assay": "Western blot of histone acetylation in NCI-H1048 cells, 24 h", "assay_type": "cell-based", "settings": "various concentrations, FIG. 1 (B)", "description": "as §1"}, "[3]": {"tested_on": "histone acetylation (e.g., AcH3K9)", "assay": "Histone H3K9 acetylation (AcH3K9), Western Blot, NCI-H1048 cells", "assay_type": "cell-based, human", "settings": "FIG. 1", "description": "as §2, §3"}}}
{"smiles": "CN1C[C@H](Nc2cnn(C)c(=O)c2Br)C[C@H](c2ccc(C(=O)N3CCC(CN4CCN(c5ccc6c(c5)CN(C5CCC(=O)NC5=O)C6=O)CC4)CC3)cc2)C1", "note": "(stereo partly drawn) [Compound 22, 3-(5-(4-((1-(4-((3R,5R)-5-((5-bromo-1-methyl-6-oxo-1,6-dihydropyridazin-4-yl)amino)-1-methylpiperidin-3-yl)benzoyl)piperidin-4-yl)methyl)piperazin-1-yl)-1-oxoisoindolin-2-yl)piperidine-2,6-dione]", "values": [{"measurement": "induction of differentiation (CD86)", "setting": "CD86 in MOLM-13 cells", "value": "induce differentiation (e.g., monocytic differentiation as assessed using CD86)"}, {"measurement": "induction of differentiation", "setting": "[1]", "value": "induce differentiation (e.g., epithelial, neural, and/or microglial)"}, {"measurement": "GI50", "setting": "MOLM-13 cells", "value": 1.2, "unit": "nM"}, {"measurement": "tumor growth inhibition", "setting": "NCI-H1048 tumors", "value": 70, "unit": "%"}, {"measurement": "histone acetylation (e.g., AcH3K9) levels", "setting": "[2]", "value": "reduce histone acetylation (e.g., AcH3K9) levels"}, {"measurement": "reduction of histone acetylation level", "setting": "histone acetylation", "value": "confirm such reduction"}, {"measurement": "histone acetylation (e.g., AcH3K9) levels", "setting": "[3]", "value": "reduce histone acetylation (e.g., AcH3K9) levels"}]}
